Experiment [1] has as its system Luteinizing hormone (LH) blood level. Briefly: LH blood hormone level in patients on conventional GnRH antagonist protocol with Ganirelex/Cetrotide injectables (Example 1). Type of experiment: in vivo, female patients. The protocol: Five female patients were treated with a GnRH antagonist protocol requiring injections of medications.
One patient, patient no. 1, was injected with 150 Units of FSH on days 3 to 12; half a syringe of 150 mcg/0.5 mL of ganirelix acetate on days 11 and 12; and 50 mg of clomiphene citrate on days 3 to 12; and 2.5 mg of letrozole on days 3 to 7. Luteinizing hormone (LH) blood level was 4.3 mIU/mL on day 10 and dropped to 2 mIU/mL on day 12.
A second patient, patient no. 2, was injected with 75 Units of FSH on days 4 to 12 and 150 Units on day 13; half a syringe of 150 mcg/0.5 mL of ganirelix acetate on days 11 to 13; 50 mg of clomiphene citrate on days 10 to 12, and 2.5 mg of letrozole on days 3 to 7. Luteinizing hormone (LH) blood level was 12.0 mIU/mL on day 11 and dropped to 6.3 mIU/mL on day 13.
Three patients, numbered 3 to 5, were injected with 75, 150 and 225 Units of FSH, respectively, on days 4 to 12 and one third a syringe of 150 mcg/0.5 mL of ganirelix acetate on days 11 to 13. Patient no. 3 received 50 mg of clomiphene citrate on days 4 to 12, and 2.5 mg of letrozole on days 4 to 8. Patient no. 4 received 100 mg of clomiphene citrate and 2.5 mg of letrozole on days 4 to 8, and 50 mg of clomiphene citrate on days 9 to 11. Patient no. 5 received no clomiphene citrate or letrozole. Luteinizing hormone (LH) blood level was 12.0, 18.0 and 14.6 mIU/mL, respectively, on day 10 and dropped to 4.9, 16.0 and 14.1 mIU/mL, respectively, on day 12.
(§1) Table 2 below provides a comparison of the efficacy of conventional Ganirelex/Cetrotide injectables treatment for IVF in the five representative patients from Example 1 with the home controlled ovarian hyperstimulation method described herein in the five representative patients from Example 2.

Experiment [2] shares this test system. Briefly: LH blood hormone level in patients on home controlled ovarian hyperstimulation method with vaginal elagolix (Example 2). Type of experiment: in vivo, female patients. The method, then: On day 9 of the menstrual cycle, the patient is directed to orally take 50 to 150 mg, preferably 100 mg, (one, two, or three 50 mg oral tablets) of clomiphene citrate and to either insert vaginally or take orally, depending on the patient's preference, a gonadotropin-releasing hormone (GnRH) antagonist such as elagolix (marketed as ORILISSA®), instead of the expensive injections of ganirelix acetate (GANIRELEX®) or cetrorelix acetate (marketed as CETROTIDE®) used routinely in conventional practices. A dose of 25 mg (⅛^th of a pill) up to 200 mg of elagolix (1 full pill), preferably 25 mg, will be used, with the dose being the same whether inserted vaginally or taken orally. Elagolix is a GnRH antagonist that is conventionally used in the treatment of pain associated with endometriosis in women, not for the treatment of infertility. By blocking the GnRH receptor, elagolix suppresses LH release by the pituitary gland and thus prevents LH surge. Ultimately, elagolix suppresses gonadal steroid production, thereby reducing circulating levels of sex hormones such as progesterone, estradiol, and testosterone. Elagolix is generally an oral medication (oral tablet), however in the present method, elagolix is a tablet taken mainly as a vaginal suppository, but may be taken orally based on the patient's preference. Additionally, the lowest and most preferred dose of elagolix (25 mg) that is used is one-eighth of the daily dosage conventionally administered for the treatment of endometriosis (e.g., 200 mg to 400 mg daily). […] Alternative GnRH receptor antagonists that can be used instead of elagolix include linzagolix and relugolix.
Five female patients were treated with the controlled ovarian hyperstimulation method described herein using the elagolix pill (vaginal route) instead of the conventional Ganirelex/Cetrotide injectables. On day 3 of the patient's menstrual cycle, the patient orally took 100 mg (two 50 mg oral tablets) of clomiphene citrate and 5 mg (two 2.5 mg oral tablets) of letrozole. The patient then took the same oral dosages of clomiphene citrate and letrozole daily on each of days 4-7 of the patient's menstrual cycle. On day 8 of the patient's menstrual cycle, the patient orally took only 100 mg (two 50 mg oral tablets) of clomiphene citrate, and stopped the letrozole. On day 9 of the menstrual cycle, the patient orally took 100 mg (two 50 mg oral tablets) of clomiphene citrate and inserted vaginally a 50 mg tablet of elagolix as a vaginal suppository. On day 10 of the menstrual cycle, the patient orally took only 100 mg (two 50 mg oral tablets) of clomiphene citrate. On day 11 of the menstrual cycle, the patient orally took 100 mg (two 50 mg oral tablets) of clomiphene citrate and inserted vaginally a 50 mg tablet of elagolix as a vaginal suppository. Also, on day 11, the patient took a home ovulation test in the morning (9:00 am) and in the evening (9:00 pm). For the patients whose ovulation tests were not positive, then on days 12 and 13, the patient took 2 doses of leuprorelin as a nasal spray (1:40 dilution in saline) as follows. On day 12, after taking a home ovulation test at 9:00 am, 2 puffs (sprays) of the nasal spray were self-administered by the patient per nostril. After 12 hours of waiting, at 9:00 pm the patient took a home urine ovulation test and then self-administered 2 more puffs (sprays) of the nasal spray per nostril. On day 13, the patient repeated the procedure of day 12. Luteinizing hormone (LH) blood level was 7.0 mIU/mL on day 11 and dropped to 1.0 mIU/mL on day 13.
as §1

The mark [3] stands for this setting: Example 2 patient 4, 50 mg elagolix vaginal suppository on days 9 and 11.
Where [4] appears, read: Example 2 patient 5, 50 mg elagolix vaginal suppository on days 9 and 11.

Structures are written as SMILES. Square brackets hold non-standard residues; d marks the D form. Peptide text beside a SMILES is read from it. d(hArg(Et2)) = CCN=C(NCC)NCCCC[C@@H](N)C(=O)O; hArg(Et2) = CCN=C(NCC)NCCCC[C@H](N)C(=O)O; dPhe(4-Cl) = N[C@H](Cc1ccc(Cl)cc1)C(=O)O; d2Nal = N[C@H](Cc1ccc2ccccc2c1)C(=O)O; d3Pal = N[C@H](Cc1cccnc1)C(=O)O

As to `CCN=C(NCC)NCCCC[C@H](NC(=O)[C@H](CC(C)C)NC(=O)[C@@H](CCCCNC(=NCC)NCC)NC(=O)[C@H](Cc1ccc(O)cc1)NC(=O)[C@H](CO)NC(=O)[C@@H](Cc1cccnc1)NC(=O)[C@@H](Cc1ccc(Cl)cc1)NC(=O)[C@@H](Cc1ccc2ccccc2c1)NC(C)=O)C(=O)N1CCC[C@H]1C(=O)N[C@H](C)C(N)=O` [Ganirelex, ganirelix acetate] (Ac-[d2Nal][dPhe(4-Cl)][d3Pal]SY[d(hArg(Et2))]L[hArg(Et2)]P[dA]-NH2), the “LH blood hormone level BEFORE medication intake” value is 4.3 mIU/mL in experiment [1] (Example 1 patient 1, day 10, half a syringe of 150 mcg/0.5 mL ganirelix acetate on days 11 and 12, FSH 150 Units days 3-12, clomiphene citrate 50 mg days 3-12, letrozole 2.5 mg days 3-7); 12.0 mIU/mL in experiment [1] (Example 1 patient 2, day 11, half a syringe of 150 mcg/0.5 mL ganirelix acetate on days 11 to 13, FSH 75 Units days 4-12 and 150 Units day 13, clomiphene citrate 50 mg days 10-12, letrozole 2.5 mg days 3-7); 12.0 mIU/mL in experiment [1] (Example 1 patient 3, day 10, one third a syringe of 150 mcg/0.5 mL ganirelix acetate on days 11 to 13, FSH 75 Units days 4-12, clomiphene citrate 50 mg days 4-12, letrozole 2.5 mg days 4-8); 18.0 mIU/mL in experiment [1] (Example 1 patient 4, day 10, one third a syringe of 150 mcg/0.5 mL ganirelix acetate on days 11 to 13, FSH 150 Units days 4-12, clomiphene citrate 100 mg and letrozole 2.5 mg days 4-8, clomiphene citrate 50 mg days 9-11); 14.6 mIU/mL in experiment [1] (Example 1 patient 5, day 10, one third a syringe of 150 mcg/0.5 mL ganirelix acetate on days 11 to 13, FSH 225 Units days 4-12, no clomiphene citrate or letrozole). The “% Drop in blood LH hormone level” value in experiment [1] (Example 1 patient 1, day 10 to day 12) amounted to 53.5%; in experiment [1] (Example 1 patient 1, day 10 to day 12, listed as Conventional Ganielex/Cetrotide Injectables), 53.5%; in experiment [1] (Example 1 patient 2, day 11 to day 13), 47.5%; in experiment [1] (Example 1 patient 2, day 11 to day 13, listed as Conventional Ganielex/Cetrotide Injectables), 47.5%; in experiment [1] (Example 1 patient 3, day 10 to day 12) it was 59.25%; in experiment [1] (Example 1 patient 3, day 10 to day 12, listed as Conventional Ganielex/Cetrotide Injectables), 59.2%. Besides, the “% Drop in blood LH hormone level” value in experiment [1] (Example 1 patient 4, day 10 to day 12) was found to be 11.1%; in experiment [1] (Example 1 patient 4, day 10 to day 12, listed as Conventional Ganielex/Cetrotide Injectables) it was 11.1%; in experiment [1] (Example 1 patient 5, day 10 to day 12), 3.4%; in experiment [1] (Example 1 patient 5, day 10 to day 12, listed as Conventional Ganielex/Cetrotide Injectables), 3.4%. Further, the “LH blood hormone level AFTER medication intake” value is reported as 2 mIU/mL in experiment [1] (Example 1 patient 1, day 12, half a syringe ganirelix acetate on days 11 and 12); 2.0 mIU/mL in experiment [1] (Example 1 patient 1, day 12, half a syringe ganirelix acetate on days 11 and 12, listed as Conventional Ganielex/Cetrotide Injectables); 6.3 mIU/mL in experiment [1] (Example 1 patient 2, day 13, half a syringe ganirelix acetate on days 11 to 13); 4.9 mIU/mL in experiment [1] (Example 1 patient 3, day 12, one third a syringe ganirelix acetate on days 11 to 13); 16.0 mIU/mL in experiment [1] (Example 1 patient 4, day 12, one third a syringe ganirelix acetate on days 11 to 13); 14.1 mIU/mL in experiment [1] (Example 1 patient 5, day 12, one third a syringe ganirelix acetate on days 11 to 13).
Turning to `COc1cccc(-c2c(C)n(Cc3c(F)cccc3C(F)(F)F)c(=O)n(C[C@H](NCCCC(=O)O)c3ccccc3)c2=O)c1F` [elagolix], the “LH blood hormone level BEFORE medication intake” value in experiment [2] (Example 2 patient 1, day 11, 50 mg elagolix tablet as vaginal suppository on days 9 and 11, clomiphene citrate 100 mg days 3-11, letrozole 5 mg days 3-7) turned out to be 7.0 mIU/mL; in experiment [2] (setting [3]) it was 8.2 mIU/mL; in experiment [2] (setting [4]) it was 7 mIU/mL. Further, the “LH blood hormone level AFTER medication intake” value in experiment [2] (Example 2 patient 1, day 13, 50 mg elagolix vaginal suppository on days 9 and 11) is 1.0 mIU/mL; in experiment [2] (Example 2 patient 2, 50 mg elagolix vaginal suppository on days 9 and 11), 5.7 mIU/mL; in experiment [2] (Example 2 patient 3, 50 mg elagolix vaginal suppository on days 9 and 11) it was 3.2 mIU/mL; in experiment [2] (setting [3]) it was 1.7 mIU/mL; in experiment [2] (setting [4]) it was 0.8 mIU/mL. Also, the “GnRH antagonist effect in the patients” value in experiment [2] (lower dose of elagolix taken as a vaginal suppository instead of orally) is “effective GnRH antagonist”.

(Values after patent publication US10695589B1, “Method and kit for home controlled ovarian stimulation for in vitro fertilization” (priority 2019, dated 2020).)
